Values quoted from earlier work in patent US20090203732A1, “Thiazolones for Use as P13 Kinase Inhibitors” (priority 2006, published 2009).
Where two headings read alike, the source gives them in different places.

How the values were obtained:
[1] = test system: Class I PI3-kinases
[2] = molecular target: CK2 protein kinase (Homo sapiens, UniProt P68400)
Chain of CK2 protein kinase (P68400 whole entry): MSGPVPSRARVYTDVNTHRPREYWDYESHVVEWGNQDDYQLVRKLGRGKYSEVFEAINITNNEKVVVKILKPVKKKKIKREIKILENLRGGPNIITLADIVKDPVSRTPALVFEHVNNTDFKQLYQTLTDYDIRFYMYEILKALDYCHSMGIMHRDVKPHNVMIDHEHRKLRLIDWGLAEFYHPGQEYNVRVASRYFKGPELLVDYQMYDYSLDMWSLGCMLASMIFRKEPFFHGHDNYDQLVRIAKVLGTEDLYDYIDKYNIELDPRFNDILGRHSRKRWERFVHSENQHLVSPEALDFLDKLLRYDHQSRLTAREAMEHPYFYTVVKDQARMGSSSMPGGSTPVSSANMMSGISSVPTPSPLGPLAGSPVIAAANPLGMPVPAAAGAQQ

| SMILES | IC50 ([1]; each of the four members of Class I PI3-kinases, read-out: IC50 against each of the various Class I PI3-kinases) [µM] | IC50 ([1]; each of the Class I PI3-kinases, Fruman et al. 1998, read-out: IC50 against each of these PI3-kinases) [µM] | IC50 [2] [µM] |
| --- | --- | --- | --- |
| COC[C@H]1OC(=O)c2coc3c2[C@@]1(C)C1=C(C3=O)[C@@H]2CCC(=O)[C@@]2(C)C[C@H]1OC(C)=O [wortmannin] | 0.001 to 0.01 | – | – |
| O=c1cc(N2CCOCC2)oc2c(-c3ccccc3)cccc12 [LY294002] | – | 15 to 20 | 5 to 10 |
